These results are taken from PubChem BioAssay AID1259407 (Chemical Carcinogenesis Research Information System (CCRIS), 2018).

The test system of this series is CCRIS mutagenicity, Ames/micronucleus/aberration tests. The series is described as follows: CCRIS mutagenicity studies.
Setting [1] is: Test System: AMES SALMONELLA TYPHIMURIUM, Strain/Indicator: TA98, Metabolic Activation: NONE, Method: PREINCUBATION
Where [2] appears, read: Test System: AMES SALMONELLA TYPHIMURIUM, Strain/Indicator: TA100, Metabolic Activation: NONE, Method: PREINCUBATION
Where [3] appears, read: Test System: AMES SALMONELLA TYPHIMURIUM, Strain/Indicator: TA1535, Metabolic Activation: NONE, Method: PREINCUBATION
Setting [4] is: Test System: AMES SALMONELLA TYPHIMURIUM, Strain/Indicator: TA1537, Metabolic Activation: NONE, Method: PREINCUBATION

The source made the active and inactive calls. No rule for the calls is given here.

`CCCOC(C(=O)OC1CCN(C)CC1)(c1ccccc1)c1ccccc1`: the mutagenic call was “inactive; negative” under setting [1]; “inactive; negative” (Test System: AMES SALMONELLA TYPHIMURIUM, Strain/Indicator: TA98, Metabolic Activation: RAT, LIVER, S-9, PHENOBARBITAL AND 5,6-BENZOFLAVONE, Method: PREINCUBATION); “inactive; negative” under setting [2]; “inactive; negative” (Test System: AMES SALMONELLA TYPHIMURIUM, Strain/Indicator: TA100, Metabolic Activation: RAT, LIVER, S-9, PHENOBARBITAL AND 5,6-BENZOFLAVONE, Method: PREINCUBATION); “inactive; negative” under setting [3]; “inactive; negative” (Test System: AMES SALMONELLA TYPHIMURIUM, Strain/Indicator: TA1535, Metabolic Activation: RAT, LIVER, S-9, PHENOBARBITAL AND 5,6-BENZOFLAVONE, Method: PREINCUBATION). Besides, the mutagenic call by setting is: under setting [4], “inactive; negative”; (Test System: AMES SALMONELLA TYPHIMURIUM, Strain/Indicator: TA1537, Metabolic Activation: RAT, LIVER, S-9, PHENOBARBITAL AND 5,6-BENZOFLAVONE, Method: PREINCUBATION) “inactive; negative”; (Test System: E. COLI, Strain/Indicator: WP2 UVRA, Metabolic Activation: NONE, Method: PREINCUBATION) “inactive; negative”; (Test System: E. COLI, Strain/Indicator: WP2 UVRA, Metabolic Activation: RAT, LIVER, S-9, PHENOBARBITAL AND 5,6-BENZOFLAVONE, Method: PREINCUBATION) “inactive; negative”.
On to `O=C(O)/C=C/c1ccc([N+](=O)[O-])cc1`, for which the mutagenic call is “active; positive” (Test System: AMES SALMONELLA TYPHIMURIUM, Strain/Indicator: TA98(1,8-DNP6), Metabolic Activation: NONE, Method: PREINCUBATION); “active; positive” (Test System: AMES SALMONELLA TYPHIMURIUM, Strain/Indicator: TA98(1,8-DNP6), Metabolic Activation: RAT, LIVER, S-9, AROCLOR 1254, Method: PREINCUBATION); “active; positive” (Test System: AMES SALMONELLA TYPHIMURIUM, Strain/Indicator: TA98(NR), Metabolic Activation: NONE, Method: PREINCUBATION); “active; positive” (Test System: AMES SALMONELLA TYPHIMURIUM, Strain/Indicator: TA98(NR), Metabolic Activation: RAT, LIVER, S-9, AROCLOR 1254, Method: PREINCUBATION); “active; positive” under setting [1]; “active; positive” (Test System: AMES SALMONELLA TYPHIMURIUM, Strain/Indicator: TA98, Metabolic Activation: NONE, Method: STANDARD PLATE). Besides, the mutagenic call by setting is: (Test System: AMES SALMONELLA TYPHIMURIUM, Strain/Indicator: TA98, Metabolic Activation: RAT, LIVER, S-9, AROCLOR 1254, Method: PREINCUBATION) “active; positive”; (Test System: AMES SALMONELLA TYPHIMURIUM, Strain/Indicator: TA98, Metabolic Activation: RAT, LIVER, S-9, AROCLOR 1254, Method: STANDARD PLATE) “active; positive”; (Test System: AMES SALMONELLA TYPHIMURIUM, Strain/Indicator: TA100(1,8-DNP6), Metabolic Activation: NONE, Method: PREINCUBATION) “active; positive”; (Test System: AMES SALMONELLA TYPHIMURIUM, Strain/Indicator: TA100(1,8-DNP6), Metabolic Activation: RAT, LIVER, S-9, AROCLOR 1254, Method: PREINCUBATION) “active; positive”; (Test System: AMES SALMONELLA TYPHIMURIUM, Strain/Indicator: TA100(NR), Metabolic Activation: NONE, Method: PREINCUBATION) “active; positive”; (Test System: AMES SALMONELLA TYPHIMURIUM, Strain/Indicator: TA100(NR), Metabolic Activation: RAT, LIVER, S-9, AROCLOR 1254, Method: PREINCUBATION) “active; positive”. For the same molecule, the mutagenic call was “active; positive” under setting [2]; “active; positive” (Test System: AMES SALMONELLA TYPHIMURIUM, Strain/Indicator: TA100, Metabolic Activation: NONE, Method: STANDARD PLATE); “active; positive” (Test System: AMES SALMONELLA TYPHIMURIUM, Strain/Indicator: TA100, Metabolic Activation: RAT, LIVER, S-9, AROCLOR 1254, Method: PREINCUBATION); “active; positive” (Test System: AMES SALMONELLA TYPHIMURIUM, Strain/Indicator: TA100, Metabolic Activation: RAT, LIVER, S-9, AROCLOR 1254, Method: STANDARD PLATE); “active; positive” under setting [3]; “active; positive” under setting [4]. In addition, the mutagenic call (Test System: AMES SALMONELLA TYPHIMURIUM, Strain/Indicator: TA1538, Metabolic Activation: NONE, Method: PREINCUBATION) was “active; positive”.
